Assay results as given in patent US9125928B2, “Agent for suppressing the formation of abnormal skin cells caused by exposure to light” (OTSUKA PHARMACEUTICAL CO., LTD., priority 2010, dated 2015).

Assays:
JB6 cells = test: Amount of cyclobutane pyrimidine dimers (CPD) in genomic DNA of UV-B irradiated JB6 cells, by ELISA; assay type: cell-based, mouse; conditions: 15 mJ/cm^2 UV-B, 48 h
Procedure: In this Example, normal mouse epidermal cells were irradiated with ultraviolet light, and then cultured in an AMP2Na-containing culture medium. Using the amount of cyclobutane pyrimidine dimers (CPD) as an index, the action of AMP2Na to reduce DNA mutation was examined.
Normal mouse epidermal cell-derived JB6 cells (purchased from ATCC) were cultured in an FBS-containing MEM culture medium until subconfluent. Subsequently, 4×10^5 cultured cells were seeded into a 3.5 cm-dish with MEM (minimum essential medium) culture medium containing FBS (fetal bovine serum). Next day after the seeding, the culture medium was replaced with a serum-free MEM culture medium for serum starvation. Subsequently, the culture medium was replaced with PBS, followed by the irradiation with 15 mJ/cm^2 of UV-B. After ultraviolet irradiation, the culture medium was replaced with serum-free MEM culture medium containing 0.01 mM, 0.1 mM, or 1 mM AMP2Na or AMP2Na-free culture-medium (control). After the replacement of the culture medium, the cells were cultured with 5% CO2 at 37° C. for 48 hours, and then collected.
Genomic DNA was extracted from the collected cells using a FastPure (trademark) DNA kit (Takara Bio Inc.). The extraction was carried out in accordance with the kit manual.
The amount of CPD in genomic DNA extracted from each cell was measured using ELISA. In particular, the extracted genomic DNA was heated at 100° C. for 10 minutes, and cooled on ice. Subsequently, genomic DNA was dispensed (50 μL/well) into a 96-well microplate coated with protamine sulfate, and dried. The following day, each of the wells was washed with PBS-T (PBS with Tween 20), and FBS-containing PBS was dispensed into each of the wells. The wells were then kept for 30 minutes at 37° C. […] Subsequently, the absorbance values at 492 nm were measured, and the amount of CPD in genomic DNA was calculated to determine the rate of change of CPD (variation in the relative amount of CPD; %) under each condition when the amount of CPD in the case of cultivation in the AMP2Na-free culture medium was assigned a value of 100%.

Hos:HR-1 mice = test: Preventive effect on skin cancer in ultraviolet light-irradiated hairless mice; assay type: in vivo; conditions: 3% AMP2Na in 20% ethanol aqueous solution, 0.1 mL on the back twice a day, 5 days a week
Procedure: In this Example, hairless mice were irradiated with ultraviolet light, and the preventive effect of AMP2Na against photocarcinogenesis in the mice was examined.
5-week-old female Hos:HR-1 mice were purchased from Japan SLC, Inc., and from the age of 7 weeks, ultraviolet light (UV-B) irradiation was performed on their back. The ultraviolet irradiation (irradiation amount per time: 60 mJ/cm^2) was performed once a day, 5 days a week, for 12 weeks.
Then, a 20% ethanol aqueous solution containing 3% of AMP2Na dissolved therein (test solution) and a 20% ethanol aqueous solution containing no AMP2Na (base) were prepared.
After feeding the ultraviolet light-irradiated mice under normal conditions for 1 week, the mice were divided into 3 groups (6 mice in each group) under the conditions shown in Table 1, and fed for 12 weeks.
The development of tumors was determined, and the number of tumors was counted.

caspase 3 = test: Caspase 3 activity in human epidermal keratinocytes treated with AMP2Na, with or without UV-B irradiation; assay type: cell-based
Description: The present Example examined a change in the caspase activity when human epidermal cells treated with disodium adenosine 5′-monophosphate (AMP2Na) were irradiated with ultraviolet light.
Human epidermal keratinocytes (purchased from Kurabo Industries Ltd.) were precultured using EpiLife-KG2 culture medium (produced by Kurabo Industries Ltd.) in 10 cm collagen-coated petri dishes (produced by Asahi Glass Co., Ltd.), and seeded at a density of 30,000 cells/well into a collagen-coated 96-well microplate. After cultivation in the EpiLife-KG2 culture medium for 8 hours, the culture medium was replaced with EpiLife culture medium (produced by Kurabo Industries Ltd.), followed by cultivation for an additional 16 hours. Subsequently, the culture medium was replaced with AMP2Na-containing culture medium adjusted to various concentrations. […] Subsequently, the activity of caspase 3 expressed in the cells were measured using a SensoLyte™ Rh110 Caspase 3 Assay Kit (produced by AnaSpec, Inc.). […] Further, in order to examine influences that AMP2Na affect the caspase activity of normal cells, caspase activity of the cells that were not irradiated with UV-B but treated with AMP2Na was determined. […]

[1] = 6th week from start of application

Nc1ncnc2c1ncn2[C@@H]1O[C@H](COP(=O)([O-])[O-])[C@@H](O)[C@H]1O.[Na+].[Na+] [AMP2Na, disodium adenosine 5′-monophosphate]
relative amount of CPD (JB6 cells; then 0.1 mM AMP2Na, versus control): decrease in the relative amount of CPD compared to the control group was significant
relative amount of CPD (JB6 cells; then 1 mM AMP2Na, versus control): decrease in the relative amount of CPD compared to the control group was significant
relative amount of CPD (JB6 cells; then AMP2Na added (0.01, 0.1 or 1 mM), AMP2Na-free control = 100%): decreased compared to the control group
average number of tumors developed per mouse (Hos:HR-1 mice; [1]): 0
tumor formation on the back of the mice (Hos:HR-1 mice; [1]): not in the test solution-applied group
tumor incidence (Hos:HR-1 mice; [1]): 0%
tumor incidence (Hos:HR-1 mice; 12th week from start of application): 17%
caspase activity (caspase 3; human epidermal keratinocytes pretreated 2 h with AMP2Na, then 30 mJ/cm^2 UV-B, measured after 6 h cultivation): significant increase in the caspase activity
caspase activity (caspase 3; non-ultraviolet-irradiated human epidermal keratinocytes, 2 h treatment with AMP2Na-containing medium at various concentrations): almost no increase in the caspase activity
